Experimental findings from publication PMC5816172 (Proceedings of the National Academy of Sciences of the …, 2018) are described below.

In the assay the test system is NLRP3 inflammasome. Kind of assay: NLRP3 inflammasome stimulation of J774A.1 macrophages. It counts as cell-based, mouse. Particulars: J774A.1 (Fig. S7B), ACHP alone.

As to `N#Cc1c(C2CCNCC2)cc(-c2c(O)cccc2OCC2CC2)nc1N` [ACHP, 2-Amino-6-[2-(cyclopropylmethoxy)-6-hydroxyphenyl]-4-(4-piperidinyl)-3-pyridinecarbonitrile, reference compound], the “reduction of LPS/nigericin induction of IL-1β” value is on record as 60%.
